Measurements from patent US6020343A, “(Methylsulfonyl)phenyl-2-(5H)-furanones as COX-2 inhibitors” (Merck Frosst Canada, Inc., priority 1998, dated 2000).

Experiments:
CHO [hCOX-1] = biological target: T1, CHO [hCOX-1] (Homo sapiens, UniProt P23219); assay: Whole Cell Assay for COX-1 using CHO Transfected Cell Lines; assay type: cell-based; conditions: CHO [hCOX-1] cells, 0.5 μM AA, PGE2
T1 construct: expressed in transfected cells; host or cells: Chinese hamster ovary (CHO) cells, vector pCDNAIII
Protocol: Chinese hamster ovary (CHO) cell lines which have been stably transfected with an eukaryotic expression vector pCDNAIII containing either the human COX-1 or COX-2 cDNA's are used for the assay. These cell lines are referred to as CHO [hCOX-1] and CHO [hCOX-2], respectively. […] Cells (0.3×10^6 cells in 200 μl) are preincubated with 3 μl of the test drug or DMSO vehicle for 15 min at 37° C. […] Cells are then challenged in the presence or absence of drug with the AA/HBSS solution to yield a final concentration of 0.5 μM AA in the CHO[hCOX-1] assay and a final concentration of 10 μM AA in the CHO[hCOX-2] assay. […] The samples are centrifuged at 300×g at 4° C. for 10 min, and an aliquot of the clarified supernatant is appropriately diluted for the determination of PGE2 levels using an enzyme-linked immunoassay for PGE2 (Correlate PGE2 enzyme immunoassay kit, Assay Designs, Inc.). Cyclooxygenase activity in the absence of test compounds is determined as the difference in PGE2 levels of cells challenged with arachidonic acid versus the PGE2 levels in cells mock-challenged with ethanol vehicle. Inhibition of PGE2 synthesis by test compounds is calculated as a percentage of the activity in the presence of drug versus the activity in the positive control samples.

[1] = tested on: carrageenan-induced paw edema; assay: Rat Paw Edema Assay; assay type: in vivo, Male Sprague-Dawley rats; conditions: po, paw volume 3 hr, Table IV
Protocol: Male Sprague-Dawley rats (150-200 g) are fasted overnight and are given, po, either vehicle (1% methocel or 5% Tween 80) or a test compound. One hr later, a line is drawn using a permanent marker at the level above the ankle in one hind paw to define the area of the paw to be monitored. The paw volume (V0) is measured using a plethysmometer (Ugo-Basile, Italy) based on the principle of water displacement. The animals are then injected subplantarly with 50 μl of 1% carrageenan solution in saline (FMC Corp, Maine) into the paw using an insulin syringe with a 25-gauge needle (i.e. 500 μg carrageenan per paw). Three hr later, the paw volume (V3) is measured and the increases in paw volume (V3 -VO) are calculated. The animals are sacrificed by CO2 asphyxiation and the absence or presence of stomach lesions scored. Data is compared with the vehicle-control values and percent inhibition calculated. All treatment groups are coded to eliminate observer bias.

COX-1 [2] = biological target: T2, COX-1 (Homo sapiens, UniProt P23219); assay: Assay of COX-1 Activity from U937 Cell Microsomes (U937); assay type: biochemical; set-up: human U-937 cells (which specifically express COX-1); endogenous in cells; host or cells: microsomes of U937 cells; conditions: U937, PGE2; Table III
Protocol: Compounds are tested as inhibitors of cyclooxygenase activity in whole cell cyclooxygenase assays. Both of these assays measure prostaglandin E2 synthesis in response to arachidonic acid, using a radioimmunoassay. Cells used for these assays are human osteosarcoma 143 cells (which specifically express COX-2) and human U-937 cells (which specifically express COX-1). In these assays, 100% activity is defined as the difference between prostaglandin E2 synthesis in the absence and presence of arachidonate.
For cyclooxygenase assays, osteosarcoma cells are cultured in 1 mL of media in 24-well multidishes (Nunclon) until confluent (1-2×10^5 cells/well). […] All assays are performed in triplicate. […] Arachidonic acid (peroxide-free, Cayman Chemical) is prepared as a 10 mM stock solution in ethanol and further diluted 10-fold in HBSS. An aliquot of 10 μL of this diluted solution is added to the cells to give a final arachidonic acid concentration of 10 μM. Control samples are incubated with ethanol vehicle instead of arachidonic acid. Samples are again gently mixed and incubated for a further 10 min. at 37° C. For osteosarcoma cells, reactions are then stopped by the addition of 100 μL of 1N HCl, with mixing and by the rapid removal of the solution from cell monolayers. For U-937 cells, reactions are stopped by the addition of 100 μL of 1N HCl, with mixing.
U 937 cells are pelleted by centrifugation at 500×g for 5 min and washed once with phosphate-buffered saline and repelleted. Cells are resuspended in homogenization buffer consisting of 0.1 M Tris-HCl, pH 7.4, 10 mM EDTA, 2 μg/ml leupeptin, 2 μg/ml soybean trypsin inhibitor, 2 μg/ml aprotinin and 1 mM phenyl methyl sulfonyl fluoride. The cell suspension is sonicated 4 times for 10 sec and is centrifuged at 10,000×g for 10 min at 4° C. The supernatant is centrifuged at 100,000×g for 1 hr at 4° C. The 100,000×g microsomal pellet is resuspended in 0.1 M Tris-HCl, pH 7.4, 10 mM EDTA to approximately 7 mg protein/ml and stored at -80° C.
Assays are performed in duplicate in a final volume of 250 μl. […]

COX-1 [3] = biological target: T2, COX-1; assay: Human Whole Blood Assay, COX-1 (Clotting-induced TxB2 Production); assay type: cell-based; set-up: endogenous in cells; conditions: clotting-induced TxB2, 1 hour, Table III, read-out: COX-1 (IC50) HWB
Text: As well, platelets in whole blood contain a large amount of the COX-1 enzyme. Immediately following blood clotting, platelets are activated through a thrombin-mediated mechanism. […] Therefore, the degree of selectivity by the test compound can be determined by measuring the levels of PGE2 after LPS induction (COX-2) and TxB2 following blood clotting (COX-1) in the same assay.
B. COX-1 (Clotting-induced TxB2 Production)
Fresh blood is collected into vacutainers containing no anticoagulants. Aliquots of 500 μL are immediately transferred to siliconized microcentrifuge tubes preloaded with 2 μL of either DMSO or a test compound at final concentrations varying from 10 nM to 30 μM. The tubes are vortexed and incubated at 37° C. for 1 hour to allow blood to clot. At the end of incubation, serum is obtained by centrifugation (12,000×g for 5 min.). A 100 μL aliquot of serum is mixed with 400 μL of methanol for protein precipitation.

T2 sequence (P23219 24-599): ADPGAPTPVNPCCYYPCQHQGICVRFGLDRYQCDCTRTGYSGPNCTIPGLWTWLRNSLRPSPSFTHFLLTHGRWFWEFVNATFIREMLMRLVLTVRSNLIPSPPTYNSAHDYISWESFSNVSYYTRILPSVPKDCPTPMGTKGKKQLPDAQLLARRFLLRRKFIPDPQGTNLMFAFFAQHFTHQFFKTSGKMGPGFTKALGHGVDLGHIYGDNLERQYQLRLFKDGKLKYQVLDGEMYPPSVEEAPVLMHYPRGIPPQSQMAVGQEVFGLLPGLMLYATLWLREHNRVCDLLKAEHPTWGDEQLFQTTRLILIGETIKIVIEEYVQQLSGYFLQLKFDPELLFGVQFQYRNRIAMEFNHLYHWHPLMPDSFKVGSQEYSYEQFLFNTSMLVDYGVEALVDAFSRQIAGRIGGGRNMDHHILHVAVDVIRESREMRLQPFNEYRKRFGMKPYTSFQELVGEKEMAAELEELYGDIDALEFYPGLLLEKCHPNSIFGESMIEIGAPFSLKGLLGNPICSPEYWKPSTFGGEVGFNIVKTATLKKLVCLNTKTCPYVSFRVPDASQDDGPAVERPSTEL
T1 sequence (P23219 24-599): as above

**Q.** With CC1(C)OC(=O)C(Oc2ccc(Br)cn2)=C1c1ccc(S(C)(=O)=O)cc1 [Example 108] as the compound, how does the IC50 (CHO [hCOX-1]; Table IV) read?
**A.** Its IC50 is > 50 µM.

**Q.** Which ED50 [1] does the source give for CC1(C)OC(=O)C(Oc2ccc(F)cn2)=C1c1ccc(S(C)(=O)=O)cc1 [Example 58] here?
**A.** Its ED50 is 0.32 mg/kg.

**Q.** And the IC50 (CHO [hCOX-1]; Table IV)?
**A.** The IC50 was > 50 µM.

**Q.** CC1(C)OC(=O)C(Oc2ccc(Cl)cn2)=C1c1ccc(S(C)(=O)=O)cc1 [Example 25, 3-(5-Chloro-2-pyridyloxy)-5,5-dimethyl-4-(4-(methylsulfonyl)phenyl)-5H-furan-2-one] was tested. Which IC50 (COX-1 [2]) did it give?
**A.** Its IC50 is 3 µM.

**Q.** With CC1(C)OC(=O)C(Oc2ccc(Cl)cc2)=C1c1ccc(S(C)(=O)=O)cc1 [Example 6, 3-(4-Chlorophenoxy)-5,5-dimethyl-4-(4-(methylsulfonyl)phenyl)-5H-furan-2-one] as the compound, how does the IC50 (COX-1 [3]) read?
**A.** Its IC50 is 1.8 µM.

**Q.** How did the IC50 (COX-1 [2]) turn out when CS(=O)(=O)c1ccc(C2=C(Sc3ccccc3)C(=O)OC2)cc1 [Example 15, 3-Phenylthio-4-(4-(methylsulfonyl)phenyl)-5H-furan-2-one] was run?
**A.** The IC50 was > 10 µM.

**Q.** CC1(C)OC(=O)C(C(=O)c2ccccc2)=C1c1ccc(S(C)(=O)=O)cc1 [Example 19b, 3-Benzoyl-5,5-dimethyl-4-(4-(methylsulfonyl)phenyl)-5H-furan-2-one] was tested. Which IC50 (CHO [hCOX-1]; Table III) did it give?
**A.** Its IC50 is > 50 µM.

**Q.** Which IC50 (COX-1 [3]) does the source give for CC1(C)OC(=O)C(Oc2cccc(F)c2)=C1c1ccc(S(C)(=O)=O)cc1 [Example 2, 3-(3-Fluorophenoxy)-5,5-dimethyl-4-(4-(methylsulfonyl)phenyl)-5H-furan-2-one] here?
**A.** Its IC50 is 23 µM.

**Q.** For CC1(C)OC(=O)C(Oc2cc(F)cc(F)c2)=C1c1ccc(S(C)(=O)=O)cc1 [Example 3], which IC50 (COX-1 [2]) is on record?
**A.** The IC50 was 1 µM.
